Assay results as given in ChEMBL document CHEMBL1649245.
Active and inactive are the calls of the source.

Legend:
[1] = system: Mycoplasmoides gallisepticum; test: Antimicrobial activity against wild-type Mycoplasma gallisepticum at 1 to 3 ug/ml; assay type: functional, organism-based
[2] = system: Mycoplasma mycoides; test: Antimicrobial activity against wild-type Mycoplasma mycoides at 1 to 3 ug/ml; assay type: functional
[3] = system: Escherichia coli; test: Antimicrobial activity against Escherichia coli at 10 to 50 ug/ml; assay type: functional, organism-based
[4] = system: Mycoplasmoides pneumoniae; test: Antimicrobial activity against wild-type Mycoplasma pneumoniae at 1 to 3 ug/ml; assay type: functional, organism-based
[5] = system: Mycoplasma capricolum; test: Antimicrobial activity against wild-type Mycoplasma capricolum at 1 to 3 ug/ml; assay type: functional
[6] = system: Mycoplasma capricolum; test: Antimicrobial activity against wild-type Mycoplasma capricolum at 3.7 ug/ml; assay type: functional
[7] = system: Mycoplasma genitalium; test: Antimicrobial activity against wild-type Mycoplasma genitalium at 1 to 3 ug/ml; assay type: functional; conditions: Mycoplasmoides genitalium

Measured: Activity

COc1ccc(C[C@H](N)C(=O)N[C@H]2[C@@H](O)[C@H](n3cnc4c(N(C)C)ncnc43)O[C@@H]2CO)cc1
active: all assays above
